This assay concerns COV413.AAD.A4 ovarian carcinoma, DM331.AAD.A4 and SLM2.AAD.A1 melanomas, MCF7.AAD.A2 and MDAMB231.AAD breast carcinomas, and JY EBV-BLCL. The assay can be described thus: Recognition of naturally processed phosphopeptides on cancer cells by phosphopeptide-specific CTL (murine IFNγ ELISA). It is filed as cell-based. The conditions noted are these: for recognition of the phosphopeptide on cancer cell lines by phosphopeptide-specific CTL (murine IFNγ in supernatant): murine CTL lines 50,000/well incubated 24 hours with 25,000 cancer cells/well, ovarian carcinoma, melanoma and breast carcinoma lines; for recognition of the phosphopeptide on the control cell line by phosphopeptide-specific CTL (murine IFNγ in supernatant): murine CTL lines 50,000/well incubated 24 hours with 25,000 cells/well, control JY EBV-BLCL. As for the experimental part:
FIG. 1, comprising FIGS. 1A and 1B, is a graphic illustration of the recognition of naturally processed and presented phosphorylated peptides on cancer cells by the phosphopeptide-specific CTL. Phosphopeptide-specific CTL were incubated with the following cancer cell lines or EBV-transformed B lymphoblastoid cell lines (BLCL): COV413.AAD.A4 ovarian carcinoma, DM331 .AAD.A4 and SLM2.AAD.A1 melanomas, MCF7.AAD.A2 and MDAMB231.AAD breast carcinomas, and JY EBV-BLCL. Supernatants were harvested and evaluated for the presence of murine IFNγ (produced by murine CTL lines). […] The ordinate indicates murine IFNγ in pg/ml. The abscissa indicates each cell line.
CTL specific for two of the antigen peptides were generated by long term culture with the peptides. Two CTL lines specific for the antigen peptide GLLGpSPVRA, lines 6850 and 6960, SEQ ID NO: 13, and two CTL lines specific for the antigen peptide RVApSPTSGV, SEQ ID NO: 14, lines 5183 and 63 were used to detect these two antigen peptides on cancer cells. The phosphopeptide-specific CTL (50,000 CTL/well) were incubated 24 hours with the following cancer cell lines or EBV-transformed B lymphoblastoid cell lines (BLCL) (25,000 cells/well): COV413.AAD.A4 ovarian carcinoma, DM331.AAD.A4 and SLM2.AAD.A1 melanomas, MCF7.AAD.A2 and MDAMB231.AAD breast carcinomas, and JY EBV-BLCL. Supernatants were harvested 24 hours later and evaluated for the presence of murine IFNγ (produced by murine CTL lines) by ELISA (eBioscience Ready-Set-go murine IFNγ ELISA kit).
A general note: An ELISA detects its analyte on a solid surface through an enzyme-linked reagent.

Non-standard residues stand in square brackets, D forms with d. No end group written: not given here. pS = N[C@@H](COP(=O)(O)O)C(=O)O

In the case of “GLLGpSPVRA (GLLG[pS]PVRA; listed as Homo sapiens) [phosphopeptide from CDC25b:p63; HLA-A2.1]”, the “recognition of the phosphopeptide on cancer cell lines by phosphopeptide-specific CTL (murine IFNγ in supernatant)” value is listed as “recognize the phosphopeptide on all the cancer cell lines” and the “recognition of the phosphopeptide on the control cell line by phosphopeptide-specific CTL (murine IFNγ in supernatant)” value is “not the control cell line”.

Consider “RVApSPTSGV (RVA[pS]PTSGV; listed as Homo sapiens) [phosphopeptide from Insulin receptor substrate-2; HLA-A2.1]”, for which the “recognition of the phosphopeptide on cancer cell lines by phosphopeptide-specific CTL (murine IFNγ in supernatant)” value was “recognize the phosphopeptide on all the cancer cell lines” and the “recognition of the phosphopeptide on the control cell line by phosphopeptide-specific CTL (murine IFNγ in supernatant)” value was “not the control cell line”.
